Assay results as given in the METLIN SMRT retention time set (Domingo-Almenara et al. 2019).

Assay: gradient 5% acetonitrile 3 min, to 50% in 2 min, to 85% in 15 min, held 3 min, 100 µL/min
Details: column: Zorbax Extend-C18 2.1 x 50 mm; eluents: water / acetonitrile, 0.1% formic acid
Summary of the method: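 Data were gathered over 3 months by HPLC coupled to a quadrupole time-of-flight mass spectrometer, operated in positive and negative ionization mode. Mixtures of ~100 pure standards ran on a Zorbax Extend-C18 column (2.1 × 50 mm, 1.8 μm) at 100 μL/min, with water and acetonitrile each containing 0.1% formic acid and dead and dwell volumes of 40 μL and 900 μL. Retention time was read from adduct peaks picked by computer and checked manually.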

SMILES	RP-LC retention time
CCC(Oc1ccc(=O)n(-c2ccc(F)cc2)n1)C(=O)NCCCOC (stereo not given)	677 s
NC(=O)c1ccc(OCC(O)CN2CC=C(c3ccc(F)cc3)CC2)cc1 (stereo not given)	512 s
COc1ccc(CCNC(=O)CSc2nnc(Cc3csc(N)n3)n2C)cc1OC	539 s
Cn1nc(C(=O)N2CCCC2)c2c1CCN(C(=O)CCC(=O)N1CCN(c3ccccc3)CC1)C2	701 s
O=C(NCCc1csc(-c2ccccc2)n1)C1CCN(S(=O)(=O)c2cccc(F)c2)CC1	922 s
COC(=O)COC(=O)c1cn(-c2ccc(OC)cc2)c(=O)c2ccccc12	924 s
CCn1c(=O)c(=O)n(CC(=O)NCCN2CCCC2)c2cccnc21	559 s
COc1ccccc1-c1nc(Cn2ccn3nc(-c4ccc5c(c4)OCO5)cc3c2=O)c(C)o1	960 s
CCn1c(CN2CCN(S(C)(=O)=O)CC2)nc2cc(NC(=O)CC(C)C)ccc21	630 s
Cc1ccc(NC(=O)CN2CCc3[nH]c4c(C)c(C)ccc4c(=O)c3C2)cc1	626 s
Cc1cc(S(=O)(=O)N(C)CC2CCOCC2)ccc1F	879 s
CC(=O)c1ccc(S(=O)(=O)NCCC2CCN(C(=O)c3ccccc3)CC2)cc1	773 s
CCc1noc(C2(NC(=O)COc3ccc(Cl)cc3)CCCCC2)n1	1040 s
CC(=O)c1cccc(NC(=O)CN2C(=O)NC3(CCC(C)CC3)C2=O)c1 (stereo not given)	746 s
Cc1cc(C)cc(NC(=O)C2CCN(S(=O)(=O)c3cc(C(=O)N4CCCC4)n(C)c3)CC2)c1	843 s
CC(C)Oc1ccc(NC(=O)C2CCN(S(C)(=O)=O)c3ccccc3O2)cc1 (stereo not given)	935 s
O=S(=O)(Nc1ccccc1)c1cccc(-c2nc(-c3ccccc3)no2)c1	1210 s
Cn1c(CNC(=O)C2(C)CCCCC(=O)N2)nc2ccccc21 (stereo not given)	573 s
CCn1cc(-c2nc(CC(=O)NCc3cccs3)cs2)c2cccnc21	805 s
COCCCNC(=O)C1CCN(C(=O)c2cc3oc(C)cc3n2Cc2c(F)cccc2Cl)CC1	826 s
COc1ccccc1CNC(=O)c1ccc2c(c1)N(C)C(=O)c1ccccc1O2	862 s
CCc1cccc(NS(=O)(=O)c2cc3n(c2)CCN(C)C3=O)c1	722 s
NCCc1nc(-c2ccccc2)cs1	550 s
NC(=O)Cc1csc(NC(=O)c2coc(NC(=O)c3ccccc3)n2)n1	586 s
COc1cc(NC(=O)CSc2nnnn2C)c2ncccc2c1	724 s
Cc1noc2nc(C)n(CC(=O)Nc3ccccc3Br)c(=O)c12	766 s

SMILES	RP-LC retention time
COc1ccc(Cl)cc1S(=O)(=O)N1CCC(C(=O)NCCCOC(C)C)CC1	804 s
CCN(CC)S(=O)(=O)c1ccc2c(c1)cc(C(=O)NCCCN1CCCC(C)C1)n2C (stereo not given)	691 s
CCOC(=O)c1c(C)oc2nc(C)nc(NCCN(C)Cc3ccccc3)c12	701 s
CCOCCCNC(=O)C1CCN(c2cc(Oc3cccc(C)c3C)ncn2)CC1	819 s
O=C(Cn1cnc2nc3c(cc2c1=O)CCCC3)N1CCN(c2ccccc2)CC1	748 s
O=C(c1ccc2nc[nH]c2c1)N1CCCN(c2cc(-c3ccc(Br)cc3)[nH]n2)CC1	625 s
Cc1cc(S(=O)(=O)N2CCC(N(C(=O)C3CC3)C3CCOCC3)CC2)ccc1Cl	977 s
COc1ccc(Nc2nccc(C3CCCN(C(=O)C4CCCCC4)C3)n2)cc1 (stereo not given)	997 s
CCOc1ccc(NC(=O)Cn2ccc3ccc(-c4nnc(CC)o4)cc32)cc1	851 s
CNc1nc(NC(C)C)nc(-n2cnc(SC)n2)n1	722 s
O=C(c1ccc(F)c(Cl)c1)N1CCC(n2c(-c3ccoc3)nc3cccnc32)C1 (stereo not given)	735 s
CCC(=O)N1CCc2sc(C(=O)NCc3ccc(CC)cc3)cc2C1	824 s
C=CCN1CC[C@@]2(C)c3cc(O)ccc3CC1[C@@H]2C	644 s
Cc1ccc(CNC(=O)C2(C)CN(S(C)(=O)=O)CC(=O)N2c2cccc(C)c2C)cc1 (stereo not given)	856 s
COc1ccc(-c2nc3ccc(Br)cn3c2Nc2ccc(C)cc2)cc1O	742 s
CN(C)c1ccc(C(=O)N2CCN(c3cc(-c4cccs4)[nH]n3)CC2)cc1	714 s
COc1ccc(C)cc1N1C(=O)CC(N2CCC(C(N)=O)CC2)C1=O (stereo not given)	590 s
NC(=O)Cn1c(Cc2ccccc2Cl)nc2ccccc21	591 s
CN(C)CCNCc1ccc(-c2cc(Cl)ccc2Cl)o1	578 s
CCOc1nc2ccccc2nc1N1CCCC(C(=O)NCc2cccc(C)c2)C1 (stereo not given)	1170 s
Cc1nc(CCNC(=O)NC2CCCCC2)no1	649 s
Cc1ccc(NC(=O)C2CCCN(c3nc4ccsc4c(=O)n3-c3ccc(C)cc3)C2)cc1 (stereo not given)	996 s
CC(=O)Nc1ccc2cc3ccc(NC(C)=O)cc3nc2c1	632 s
COc1ccccc1-c1nc(Cn2nnc(-c3nc(-c4cccc(C(F)(F)F)c4)no3)c2C)c(C)o1	1250 s
CCN(C(=O)C1CCCN(c2ncnc3c2nc2n3CCCCC2)C1)c1ccccc1C (stereo not given)	890 s

Other lines, results leading:

RP-LC retention time	SMILES
1180 s	O=C(NCc1ccccc1Cl)c1c(O)c2cccc3c2n(c1=O)CC3
749 s	COc1ccc(OCc2noc(CNC(=O)c3cccnc3)n2)cc1
588 s	CCn1c(CN2CCN(S(C)(=O)=O)CC2)nc2cc(NC(C)=O)ccc21
928 s	O=S(=O)(c1ccccc1)N1CCCC(c2nnnn2-c2ccccc2)C1 (stereo not given)
785 s	COc1ccc(F)cc1S(=O)(=O)NCC1(C)CCOCC1
721 s	CC1CCCN(c2ccc(-c3noc(CN(C)C4CCCCC4)n3)cn2)C1 (stereo not given)
742 s	Cc1ccc(NC(=O)C2CCCN(c3cn[nH]c(=O)c3)C2)cc1C (stereo not given)
918 s	O=C(NC1CCCCC1)C1c2cccn2CC(=O)N1Cc1ccc(F)cc1 (stereo not given)
890 s	Cc1ccccc1NC(=O)N1CCCC1c1cc(C(C)C)on1 (stereo not given)
566 s	CCC(=O)c1ccc(OCC(O)CN(CC)Cc2ccccc2)cc1 (stereo not given)
1020 s	Cc1ccccc1CC(=O)N1CCc2cc(-c3ccno3)ccc21
554 s	CCNc1cc(N2CCC(CCC(=O)NCc3nc4ccccc4n3C)CC2)ncn1
767 s	O=C(Nc1cccc(F)c1)N1CCC(n2c(-c3ccco3)nc3cccnc32)C1 (stereo not given)
592 s	NC(=O)C1CCN(C(=O)c2cc(-n3cnnn3)ccc2Cl)CC1
787 s	CCNC(=O)N1CCc2c(c(-c3nc(-c4ccccc4)no3)nn2C)C1
756 s	COc1cccc(CC(=O)N2CCC3(CC2)NC(=O)c2ccc(F)cc2N3C)c1
786 s	O=C(Cn1c(=O)c(=O)n(Cc2ccccc2)c2ncccc21)NCc1ccco1
864 s	Cn1c(=O)c(N2CCN(C(=O)c3ccccc3F)CC2)nc2ccccc21
872 s	CCC1CCCCN1C(=O)CC1CCN(S(=O)(=O)c2ccc3c(c2)oc(=O)n3C)CC1 (stereo not given)
640 s	COC(=O)c1cnc(N2CCN(c3ccccn3)CC2)c2ccccc12

RP-LC retention time	SMILES
842 s	O=c1ccc(N2CCCN(S(=O)(=O)c3ccc(F)cc3F)CC2)nn1-c1ccccc1
1270 s	CCn1cc(C2=CCN(S(=O)(=O)c3ccc(C(C)(C)C)cc3)CC2)c2cccnc21
814 s	CC(C)c1ccc(-c2noc(N3CCC(C(=O)N4CCN(C5CCCCC5)CC4)CC3)n2)cc1
803 s	COc1ccc(-c2c(C)noc2NC(C)=O)cc1S(=O)(=O)Nc1ccc(F)c(Cl)c1
919 s	Cc1ccc(S(=O)(=O)N2CCOCC2)cc1-c1nnc(-c2ccccc2)o1
831 s	Cc1cccc(-c2noc(-c3ccc(N4CCN(C5CCCCC5)CC4)nc3)n2)c1
774 s	O=C(NCCc1cccs1)C1CCN(C(=O)c2ncn3c2COC(c2ccc(F)cc2)C3)CC1 (stereo not given)
665 s	COCCOC1CCN(C(=O)c2cccs2)CC1
675 s	O=C(Nc1ccc(-c2ccc3nnc(-c4ccncc4)n3n2)cc1)c1cccc(Cl)c1
829 s	O=C(Nc1nc2ccccc2s1)C1CCN(C(=O)c2ccccc2Cl)CC1
757 s	O=C(NCc1ccc(F)c(Cl)c1)C1CCCN(c2cnc3nccnc3c2)C1 (stereo not given)
778 s	CN(C)C(=O)c1ccc2c(c1)N(CC(=O)N1CCN(c3ccccc3)CC1)C(=O)C1CCCCN21 (stereo not given)
1170 s	Cc1ccc(-n2cc(C(=O)OCc3ccco3)c3ccccc3c2=O)cc1
785 s	Cc1nc(C)c(C(=O)NCC23CCCC=C2N(CC2CC2)C(=O)CC3)s1 (stereo not given)
559 s	COc1ccc(NCc2nnc3n2CCCCC3)cc1OC
619 s	O=C(NC1CC1)C1CCCN(C(=O)c2ccccc2)C1 (stereo not given)
906 s	O=C(Nc1ccccc1F)C(=O)c1cn(CC(=O)N2CCOCC2)c2ccccc12
778 s	O=c1c(NCCCc2ccccc2)nc2ccncc2n1Cc1ccccc1
568 s	CCn1c(=O)c2ccn(CC(=O)NCc3cccnc3)c2n(CC)c1=O
